Here are results for twelve molecules from article PMC7752915 (Cell Discovery, 2020).

Data set [1] relates to SARS-CoV-2. Put plainly: in vitro.
In data set [2] the test system is SARS-CoV-2. Put plainly: microbe, parasite or virus in culture. To be noted: Severe acute respiratory syndrome coronavirus 2, Vero C1008, 24 h, read-out: half maximal inhibitory concentration (IC50) of SARS-CoV-2 replication.
Data set [3] concerns SARS-CoV-2. To be noted: for IC50: read-out: half maximal inhibitory concentration (IC50) of SARS-CoV-2 replication, viral RNA copy number in supernatant.
A short description of data set [4]: cytotoxicity in Vero E6 cells, CCK-8 assay. To be noted: African green monkey. For orientation: Tetrazolium dyes change colour on reduction, which living cells bring about.
Data set [5] relates to SARS-CoV-2. Briefly: time-of-addition assay (full-time, entry, post-entry treatment) in Vero E6 cells. The class given is cell-based.
In a further data set the test system is Vero E6 cells. Briefly: cytotoxicity in Vero E6 cells, CCK-8 assay. To be noted: read-out: half cytotoxic concentration (CC50); Vero E6 cells, CCK-8 assay, 24 h.
Data set [6] has as its system SARS-CoV-2. Put plainly: separate or combined application of CQ and CCB in Vero E6 cells, qRT-PCR and NP immunofluorescence. The class given is cell-based. To be noted: MOI 0.05, 24 h p.i. For orientation: In qPCR the cycle at which signal appears reflects the starting amount.
Data set [7] deals with COVID-19 patients with hypertension. Put plainly: retrospective clinical investigation of hospitalized COVID-19 patients with hypertension as the only comorbidity. To be noted: for Admission to ICU / Invasive ventilation: number (%) of patients. The class given is in vivo, human.
For data set [8] the following is noted: cited from earlier work.
Data set [9] deals with SARS-CoV-2. The data set is classed as cell-based. To be noted: Vero E6 cells, MOI 0.05, 24 h p.i., viral titer in supernatant.
A short description of a further data set: in vitro. To be noted: African green monkey.
The mark [10] stands for this setting: Vero E6 cells, MOI 0.05, 24 h p.i., serial concentrations.
The mark [11] stands for this setting: Vero E6 cells, MOI 0.05, 24 h p.i.
[12] abbreviates: Supplementary Table S2, by treatment regimen.
[13] abbreviates: Amlodipine n = 19, listed as Amlodipine.

Structures can show the parent of a compound that is named as a salt. Where two headings read alike, the source gives them in different places.

As to `NCCOB(c1ccccc1)c1ccccc1` [2ABP, 2-aminoethyl diphenylborinate], the selectivity ratio with SARS-CoV-2 [1] is greater than 8.26. Also, the IC50 in the data set on SARS-CoV-2 [2] was 24.2 µM. Further, the “inhibition of SARS-CoV-2 replication (in words)” value (from here on “inhibition”) in the data set with SARS-CoV-2 [3] was “significantly inhibited virus replication in a concentration-dependent manner”. Besides, the CC50 at 24 h in [4] is greater than 200 µM. Further, the “stage of virus infection inhibited” value in the data set on SARS-CoV-2 [5] is “mainly inhibit virus infection at a stage after virus entry”.
With `CC(=O)OCOC(=O)CN(CC(=O)OCOC(C)=O)c1ccccc1OCCOc1ccccc1N(CC(=O)OCOC(C)=O)CC(=O)OCOC(C)=O` [BAPTA-AM, 1,2-bis(2-aminophenoxy)ethane-N,N,N′,N′-tetraacetic acid tetrakis(acetoxymethyl ester)], the “selective index (SI = CC50/IC50)” value with SARS-CoV-2 [3] (Vero E6 cells) came to 5.83. In addition, in the data set on SARS-CoV-2 [3] (setting [10]), the “inhibition” value is given as “significantly inhibited virus replication in a concentration-dependent manner”. Besides, in the data set on SARS-CoV-2 [3] (setting [11]), the IC50 worked out at 13.9 µM. Further, in the data set with Vero E6 cells, the CC50 worked out at 81.3 µM.
Turning to `CCN(CC)CCCC(C)Nc1ccnc2cc(Cl)ccc12` (stereo not shown) [CQ, chloroquine], the “effect on virus replication, separate or combined application” value in the data set on SARS-CoV-2 [6] was “distinct reduction in virus replication”.
For `CCOC(=O)C1=C(COCCN)NC(C)=C(C(=O)OC)C1c1ccccc1Cl` (stereo not shown) [amlodipine besylate], in data set [7] (setting [12]), the “Fatal, n (%)” value is on record as 0 n (%) and the “Survival, n (%)” value is on record as 19 (100) n (%). Further, the “Fatal (outcome)” value in data set [7] (Table 1, number (%) of patients, Amlodipine n = 19) is 0. In [7] (Amlodipine n = 19), the “Admission to ICU” value is given as “none” and the Invasive ventilation entry is “none”. In addition, in data set [7] (setting [13]), the “Admission to ICU” value amounted to 0 and the Invasive ventilation is reported as 0. Besides, the Cmax in data set [8] (volunteers, 5 mg of amlodipine besylate) was ~ 4 ng/mL. Further, in the data set with SARS-CoV-2 [9], the “anti-SARS-CoV-2 activity by plaque assay (in words)” value is recorded as “confirmed by plaque assay”.
With `COC(=O)C1=C(C)NC(C)=C(C(=O)O[C@@H]2CCCN(Cc3ccccc3)C2)[C@@H]1c1cccc([N+](=O)[O-])c1.Cl` [benidipine HCI], in the data set with SARS-CoV-2 [3] (Vero E6 cells), the “selective index (SI = CC50/IC50)” value is greater than 26.25. In addition, the IC50 in the data set on SARS-CoV-2 [3] (setting [11]) was found to be 3.81 µM. The CC50 in the data set on Vero E6 cells is greater than 100 µM. For the same molecule, the “effect on virus replication, separate or combined application” value in the data set on SARS-CoV-2 [6] is listed as “distinct reduction in virus replication”. In addition, the “stage of virus infection inhibited” value with SARS-CoV-2 [5] (Vero E6 cells, MOI 0.05, 24 h p.i., qRT-PCR, western blot, immunofluorescence) is “mainly inhibit virus infection at a stage after virus entry”. Also, the Cmax in data set [8] (volunteers, 8 mg of benidipine HCI) was ~ 4 ng/mL. The “anti-SARS-CoV-2 activity by plaque assay (in words)” value with SARS-CoV-2 [9] is “confirmed by plaque assay”.
In the case of `COCCOC(=O)C1=C(C)NC(C)=C(C(=O)OC/C=C/c2ccccc2)C1c1cccc([N+](=O)[O-])c1` (stereo not shown) [cilnidipine], in the data set with SARS-CoV-2 [1], the selectivity ratio at 24 h is greater than 8.64. For the same molecule, in the data set with SARS-CoV-2 [2], the IC50 stood at 11.6 µM. In “in vitro”, this molecule registered a CC50 at 24 h greater than 100 µM. Further, in [8] (human, in vivo, 20 mg), the Cmax was 16.5 ng/mL.
Take `CCOC(=O)[C@H](CCc1ccccc1)N[C@@H](C)C(=O)N1CCC[C@H]1C(=O)O` [enalapril maleate]: the “inhibition” value in the data set on SARS-CoV-2 [3] (setting [10]) is reported as “did not show any significant inhibition effects”.
On the same count and under the same terms, under `C[C@H](N[C@@H](CCc1ccccc1)C(=O)O)C(=O)N1CCC[C@H]1C(=O)O.O.O` [enalaprilat dehydrate] stands “did not show any significant inhibition effects”; under `CCCCc1nc(Cl)c(CO)n1Cc1ccc(-c2ccccc2-c2nn[nH]n2)cc1` [losartan potassium], “did not show any significant inhibition effects”.
As for `COC(=O)C1=C(C)NC(C)=C(C(=O)OCCN(C)Cc2ccccc2)C1c1cccc([N+](=O)[O-])c1` (stereo not shown) [nicardipine HCI, nicardipine HCl], in the data set with SARS-CoV-2 [1], the selectivity ratio at 24 h was greater than 7.51. The IC50 in the data set with SARS-CoV-2 [2] was found to be 13.3 µM. In [4], this molecule had a CC50 at 24 h greater than 100 µM. The Cmax in data set [8] (volunteers, 60 mg nicardipine hydrochloride) was 58.4 ng/mL.
As to `COC(=O)C1=C(C)NC(C)=C(C(=O)OC)C1c1ccccc1[N+](=O)[O-]` [nifedipine], the “case fatality rate (CFR)” value in data set [7] (COVID-19 patients with hypertension as only comorbidity, by antihypertensive drug received) is 14.3%. The “Fatal, n (%)” value in [7] (setting [12]) is on record as 2 (14.3) n (%).
For `CCCCC(=O)N(Cc1ccc(-c2ccccc2-c2nnn[nH]2)cc1)[C@H](C(=O)O)C(C)C` [valsartan], the “inhibition” value in the data set on SARS-CoV-2 [3] (setting [10]) was “did not show any significant inhibition effects”.

The term Cmax denotes the highest concentration seen after dosing.
